Source: patent US7034042B2, “N-(4-aryloxypiperidin-1-ylalkyl) cinnamic amides as CCR33 receptor antagonists” (Novartis AG, priority 2000, dated 2006)

Each molecule was assayed against T1, human CCR-3 (Homo sapiens, UniProt P51677) (assay: CCR-3 Binding Assay (inhibition of [125I]-human eotaxin binding, SPA)). Details: binding of [125I]-human eotaxin to membranes of RBL-2H3 cells stably expressing CCR3; 4 hours at room temperature.
T1 construct: expressed in transfected cells; membranes
T1 sequence (P51677 1-355): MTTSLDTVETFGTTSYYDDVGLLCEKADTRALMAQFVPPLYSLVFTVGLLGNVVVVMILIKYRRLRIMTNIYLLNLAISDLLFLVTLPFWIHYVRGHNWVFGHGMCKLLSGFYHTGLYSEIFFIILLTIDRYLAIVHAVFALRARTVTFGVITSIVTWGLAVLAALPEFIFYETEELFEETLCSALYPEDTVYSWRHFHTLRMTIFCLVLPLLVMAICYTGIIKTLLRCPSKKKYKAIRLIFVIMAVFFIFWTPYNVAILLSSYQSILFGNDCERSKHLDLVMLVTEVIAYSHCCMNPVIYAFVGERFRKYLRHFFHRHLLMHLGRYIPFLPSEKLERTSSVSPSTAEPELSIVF
Description: In this assay the effect of agents of the invention on the binding of human eotaxin to human CCR-3 is determined. Recombinant cells expressing human CCR-3 are captured by wheatgerm agglutinin (WGA) polyvinyltoluidene (PVT) SPA beads (available from Amersham), through a specific interaction between the WGA and carbohydrate residues of glycoproteins on the surface of the cells. [^125I]-human eotaxin (available from Amersham) binds specifically to CCR-3 receptors bringing the [^125I]-human eotaxin in close proximity to the SPA beads. Emitted â-particles from the [^125I]-human eotaxin excite, by its proximity, the fluorophore in the beads and produce light.
Preparation of Assay Buffer: 5.96 g HEPES and 7.0 g sodium chloride are dissolved in distilled water and 1M aqueous CaCl2 (1 mL) and 1M aqueous MgCl2 (5 mL) are added. The pH is adjusted to 7.6 with NaOH and the solution made to a final volume of 1 L using distilled water. 5 g bovine serum albumin and 0.1 g sodium azide are then dissolved in the solution and the resulting buffer stored at 4° C. A Complete™ protease inhibitor cocktail tablet (available from Boehringer) is added per 50 mL of the buffer on the day of use.
Preparation of Homogenisation Buffer: Tris-base (2.42 g) is dissolved in distilled water, the pH of the solution is adjusted to 7.6 with hydrochloric acid and the solution is diluted with distilled water to a final volume of 1 L. The resulting buffer is stored at 4° C. A Complete™ protease inhibitor cocktail tablet is added per 50 mL of the buffer on the day of use.
Preparation of membranes: Confluent rat basophil leukemia (RBL-2H3) cells stably expressing CCR3 are removed from tissue culture flasks using enzyme-free cell dissociation buffer and resuspended in phosphate-buffered saline. […]
The assay is performed in a final volume of 250 μL per well of an Optiplate (ex Canberra Packard). […] The resulting scintillations are counted using a Canberra Packard TopCount, each well being counted for 1 minute. […]

IC50 [nM] | SMILES
11 | COc1ccc(C#N)cc1/C=C/C(=O)N[C@H](CC(=O)N(C)CCO)CN1CCC(Oc2ccc(F)cc2)CC1 [Example 14, (E)-3-(5-Cyano-2-methoxy-phenyl)-N-((R)-2-[4-(4-fluoro-phenoxy)-piperidin-1-yl]-1-{[(2-hydroxy-ethyl)-methyl-carbamoyl]-methyl}-ethyl)-acrylamide]
2.8 | COc1ccc(C#N)cc1/C=C/C(=O)N[C@H](CNC(C)=O)CN1CCC(Oc2ccc(F)cc2)CC1 [Example 16, (E)-N-{(R)-1-(Acetylamino-methyl)-2-[4-(4-fluoro-phenoxy)-piperidin-1-yl]-ethyl}-3-(5-cyano-2-methoxy-phenyl)-acrylamide]
16 | COc1ccc(C#N)cc1/C=C/C(=O)NC(CO)CN1CCC(Oc2ccc(F)cc2)CC1 (stereo not drawn) [Example 1, (E)-3-(5-Cyano-2-methoxy-phenyl)-N-{2-[4-(4-fluoro-phenoxy)-piperidin-1-yl]-1-hydroxymethyl-ethyl}-acrylamide]
